Some results are limits rather than exact numbers.

The target of one series is T1, GSNOR (Homo sapiens, UniProt P11766).
T1 construct: made in house; host or cells: E. coli (arabinose-induced)
T1 sequence (P11766 whole entry): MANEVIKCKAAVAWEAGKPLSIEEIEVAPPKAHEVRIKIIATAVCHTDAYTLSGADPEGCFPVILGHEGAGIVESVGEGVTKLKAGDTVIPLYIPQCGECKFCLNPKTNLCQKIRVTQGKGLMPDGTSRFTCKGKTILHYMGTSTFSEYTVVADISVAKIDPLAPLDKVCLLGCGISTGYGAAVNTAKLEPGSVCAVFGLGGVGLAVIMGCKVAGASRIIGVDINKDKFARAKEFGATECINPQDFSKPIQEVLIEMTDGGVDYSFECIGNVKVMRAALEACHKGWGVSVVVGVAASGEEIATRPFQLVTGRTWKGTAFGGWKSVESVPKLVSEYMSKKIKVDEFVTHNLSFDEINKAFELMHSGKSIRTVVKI
Kind of series: GSNOR assay (inhibition of GSNOR activity, NADH absorbance at 340 nm). The series is classed as biochemical. Conditions: assay of Example 24; 0.240 mM GSNO, 0.300 mM NADH, pH 7.4, 25° C.; read-out: IC50 (GSNOR inhibitor activity). Here is the method:
Various compounds were tested in vitro for their ability to inhibit GSNOR activity. GSNOR expression and purification is described in Biochemistry 2000, 39, 10720-10729.
GSNOR Fermentation: Pre-cultures were grown from stabs of a GSNOR glycerol stock in 2XYT media containing 100 ug/ml ampicillin after an overnight incubation at 37° C. Cells were then added to fresh 2XYT (4 L) containing ampicillin and grown to an OD (A600) of 0.6-0.9 at 37° C. before induction. GSNOR expression was induced with 0.1% arabinose in an overnight incubation at 20° C.
GSNOR Purification: E. coli cell paste was lysed by nitrogen cavitation and the clarified lysate purified by Ni affinity chromatography on an AKTA FPLC (Amersham Pharmacia). The column was eluted in 20 mM Tris pH 8.0/250 mM NaCl with a 0-500 mM imidazole gradient. Eluted GSNOR fractions containing the Smt-GSNOR fusion were digested overnight with Ulp-1 at 4° C. to remove the affinity tag then re-run on the Ni column under the same conditions. GSNOR was recovered in the flowthrough fraction and for crystallography is further purified by Q-Sepharose and Heparin flowthrough chromatography in 20 mM Tris pH 8.0, 1 mM DTT, 10 uM ZnSO4.
GSNOR Assay: GSNO and Enzyme/NADH Solutions are made up fresh each day. The Solutions are filtered and allowed to warm to room temperature. GSNO Solution: 100 mM NaPO4 (pH 7.4), 0.480 mM GSNO. 396 μL of GSNO Solution is added to a cuvette followed by 8 μL of test compound in DMSO (or DMSO only for full reaction control) and mixed with the pipette tip. Compounds to be tested are made up at a stock concentration of 10 mM in 100% DMSO. 2 fold serial dilutions are done in 100% DMSO. 8 μL of each dilution are added to an assay so that the final concentration of DMSO in the assay is 1%. The concentrations of compounds tested range from 100 to 0.003 μM. Enzyme/NADH Solution: 100 mM NaPO4 (pH 7.4), 0.600 mM NADH, 1.0 μg/mL GSNO Reductase. 396 μL of the Enzyme/NADH Solution is added to the cuvette to start the reaction. The cuvette is placed in the Cary 3E UV/Visible Spectrophotometer and the change in 340 nm absorbance/min at 25° C. is recorded for 3 minutes. The assays are done in triplicate for each compound concentration. IC50's for each compound are calculated using the standard curve analysis in the Enzyme Kinetics Module of SigmaPlot.
Final assay conditions: 100 mM NaPO4, pH 7.4, 0.240 mM GSNO, 0.300 mM NADH, 0.5 μg/mL GSNO Reductase and 1% DMSO. Final volume: 800 μL/cuvette.
Take `O=C(O)c1ccc(-c2c(C(F)(F)F)oc3cc(O)ccc3c2=O)cc1Cl` [Example 18, 2-chloro-4-(7-hydroxy-4-oxo-2-(trifluoromethyl)-4H-chromen-3-yl)benzoic acid]: the IC50 was under 0.1 µM.

Consider `CC(F)(F)c1oc2cc(O)ccc2c(=O)c1-c1ccc(C(=O)O)cc1` [Example 16, 4-(2-(1,1-difluoroethyl)-7-hydroxy-4-oxo-4H-chromen-3-yl)benzoic acid], for which the IC50 was under 0.1 µM.

Regarding `CC(C)c1oc2cc(O)ccc2c(=O)c1-c1ccc(C(=O)O)cc1` [Example 3, 4-(7-hydroxy-2-isopropyl-4-oxo-4H-chromen-3-yl)benzoic acid], the half-inhibitory concentration (IC50) was under 0.5 µM.

For `O=C(O)c1ccc(-c2c(C(F)F)oc3cc(O)ccc3c2=O)cc1` [Example 1, 4-(2-(difluoromethyl)-7-hydroxy-4-oxo-4H-chromen-3-yl)benzoic acid], the half-inhibitory concentration (IC50) is under 0.1 µM.

On to `CCC(F)(F)c1oc2cc(O)ccc2c(=O)c1-c1ccc(C(=O)O)cc1` [Example 19, 4-(2-(1,1-difluoropropyl)-7-hydroxy-4-oxo-4H-chromen-3-yl)benzoic acid], for which the 50% inhibitory concentration (IC50) is under 0.5 µM.

`COCc1oc2cc(O)ccc2c(=O)c1-c1ccc(C(=O)O)cc1` [Example 2, 4-(7-hydroxy-2-(methoxymethyl)-4-oxo-4H-chromen-3-yl)benzoic acid]: the IC50 is under 0.5 µM.

For the compound `O=C(O)c1ccc(-c2c(C(F)(F)F)oc3cc(O)ccc3c2=O)cc1` [Example 10, 4-(7-hydroxy-4-oxo-2-(trifluoromethyl)-4H-chromen-3-yl)benzoic acid], the half-maximal inhibitory concentration (IC50) is under 0.1 µM.

On to `COc1cc(C(=O)O)ccc1-c1c(C(F)(F)F)oc2cc(O)ccc2c1=O` [Example 20, 4-(7-hydroxy-4-oxo-2-(trifluoromethyl)-4H-chromen-3-yl)-3-methoxybenzoic acid], for which the IC50 was under 0.1 µM.

With `O=C(O)c1ccc(-c2c(C(F)(F)F)oc3cc(O)ccc3c2=O)cc1F` [Example 14, 2-fluoro-4-(7-hydroxy-4-oxo-2-(trifluoromethyl)-4H-chromen-3-yl)benzoic acid], the IC50 is under 0.1 µM.

For the compound `O=C(O)c1ccc(-c2c(C(F)(F)F)oc3cc(O)ccc3c2=O)c(Cl)c1` [Example 15, 3-chloro-4-(7-hydroxy-4-oxo-2-(trifluoromethyl)-4H-chromen-3-yl)benzoic acid], the half-maximal inhibitory concentration (IC50) is under 0.1 µM.

Turning to `Cc1oc2cc(O)ccc2c(=O)c1-c1ccc(C(=O)O)cc1` [Example 5, 4-(7-hydroxy-2-methyl-4-oxo-4H-chromen-3-yl)benzoic acid], the IC50 was under 0.5 µM.

`O=C(O)c1ccc(-c2c(C(F)(F)F)oc3cc(O)c(F)cc3c2=O)cc1` [Example 13, 4-(6-fluoro-7-hydroxy-4-oxo-2-(trifluoromethyl)-4H-chromen-3-yl)benzoic acid]: the half-inhibitory concentration (IC50) was under 0.5 µM.

For the compound `O=C(O)c1ccc(-c2c(Cc3ccccc3)oc3cc(O)ccc3c2=O)cc1` [Example 6, 4-(2-benzyl-7-hydroxy-4-oxo-4H-chromen-3-yl)benzoic acid], the IC50 was under 0.5 µM.

Staying with this series, now noted: method described in Example 24; comparative example; read-out: IC50 (GSNOR inhibitor activity).
Take `O=C(O)c1ccc(-c2coc3cc(O)ccc3c2=O)cc1` [Example 22, 4-(7-hydroxy-4-oxo-4H-chromen-3-yl)benzoic acid, reference compound]: the IC50 is 0.135 µM.

Test system in the next series: not listed separately
Briefly: Mouse pharmacokinetic (PK) study. The series is classed as in vivo. To be noted: plasma, male BALB/c mice, 10 mg/kg PO vs 2 mg/kg IV, single dose, based on area under the curve. The source says:
The mouse is used to determine the pharmacokinetics of GSNOR inhibitors. This species is widely used to assess the bioavailability of compounds by administering both oral (PO) and intravenous (IV) test articles. Efficacy of the GSNOR inhibitors can be compared by assessing plasma exposure in male BALB/c mice either via IV or PO administration at the times of peak activity.
The GSNOR inhibitor Compound 10 was reconstituted in a phosphate buffered saline (PBS)/10% Solutol (HS 15) clear solution resulting in a concentration of 0.2 mg/mL and administered to mice (2 mg/kg) as a single IV dose. Animals were dosed via the lateral tail vein. […] The plasma was transferred into labeled polypropylene tubes and frozen at −70° C. until analyzed by LC/MS/MS.
The GSNOR inhibitor Compound 10 was reconstituted in 40% Propylene Glycol/40% Propylene Carbonate/20% of a 5% Sucrose clear solution resulting in a concentration of 2 mg/mL and administered to mice (10 mg/kg) as a single oral dose via gavage. […] The plasma was transferred into labeled polypropylene tubes and frozen at −70° C. until analyzed by LC/MS/MS.
Plasma samples at each timepoint were analyzed using a LC-MS/MS with a lower limit of quantification (LLOQ) of 1 ng/mL. Plasma was analyzed to determine the amount of the GSNOR inhibitor in each sample and regression curves were generated for each GSNOR inhibitor in the relevant matrixes. […]
For the compound `O=C(O)c1ccc(-c2c(C(F)(F)F)oc3cc(O)ccc3c2=O)cc1` [Example 10, 4-(7-hydroxy-4-oxo-2-(trifluoromethyl)-4H-chromen-3-yl)benzoic acid], the bioavailability is over 17%.

One may read the IC50 as the concentration that gives 50% inhibition. The bioavailability is the share of a dose that reaches the circulation, judged against a reference dose that is usually intravenous. A higher bioavailability goes with good availability.

The record behind these values is US9717706B2, “Chromone inhibitors of S-nitrosoglutathione reductase” (Nivalis Therapeutics, Inc., priority 2010, dated 2017).
